Results on 6 compounds are retold here after PubChem BioAssay (NCI).

Where “and” joins values, the source holds several entries; their conditions need not be identical. Equal entries are not always repeated.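 All cell lines were grown in 96-well plates and treated with compound for 48 hours. At the TGI there is no net growth.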

The first experiment has as its system SNB-19 CNS. Nature of the experiment: inhibition of tumour cell growth, NCI panel, 48 h.
For the compound `CNc1ncnc2c1ncn2C1C=CC(COS(N)(=O)=O)C1` (configuration not stated), the TGI was greater than 100 µM.

Regarding `O=C(NC1=NCC(CN2CCN(c3ccccc3)CC2)O1)Nc1ccccc1` (configuration not stated), the TGI was greater than 100 µM.

`Cc1ccc2c(c1)[nH]c(=S)n2/C=C1\C(=O)Oc2ccccc2C1=O`: the TGI was greater than 100 µM.

Compound `O=C1C(Cl)C2(CC(/C=C/c3ccccc3Cl)=NN2c2cccc(S(=O)(=O)O)c2)N1c1nc2ccccc2s1` (configuration not stated) gave a TGI greater than 100 µM.

Consider `COCCOC(=O)c1c(C)n([O-])c2cc(Cl)c(Cl)cc2[n+]1=O`, for which the TGI is greater than 100 µM.

`COc1ccc(-c2c(C#N)c(N)n(C3OCC(OC(C)=O)C(OC(C)=O)C3OC(C)=O)c(=S)c2C#N)cc1` (configuration not stated) came in with a TGI greater than 100 µM.

The next experiment has as its system NCI/ADR-RES ovarian. Kind of experiment: inhibition of tumour cell growth, NCI panel, 48 h.
`CNc1ncnc2c1ncn2C1C=CC(COS(N)(=O)=O)C1` (configuration not stated) registered a TGI greater than 100 µM.

In turn, `O=C(NC1=NCC(CN2CCN(c3ccccc3)CC2)O1)Nc1ccccc1` (configuration not stated) showed a TGI greater than 100 µM.

`Cc1ccc2c(c1)[nH]c(=S)n2/C=C1\C(=O)Oc2ccccc2C1=O` had a TGI greater than 100 µM.

Compound `O=C1C(Cl)C2(CC(/C=C/c3ccccc3Cl)=NN2c2cccc(S(=O)(=O)O)c2)N1c1nc2ccccc2s1` (configuration not stated) gave a TGI greater than 100 µM.

The compound `COCCOC(=O)c1c(C)n([O-])c2cc(Cl)c(Cl)cc2[n+]1=O` registered a TGI of 27.4 µM.

In the case of `COc1ccc(-c2c(C#N)c(N)n(C3OCC(OC(C)=O)C(OC(C)=O)C3OC(C)=O)c(=S)c2C#N)cc1` (configuration not stated), the TGI is greater than 100 µM.

The next experiment deals with K-562 leukemia. Kind of experiment: inhibition of tumour cell growth, NCI panel, 48 h.
As to `CNc1ncnc2c1ncn2C1C=CC(COS(N)(=O)=O)C1` (configuration not stated), the TGI was greater than 100 µM.

As to `O=C(NC1=NCC(CN2CCN(c3ccccc3)CC2)O1)Nc1ccccc1` (configuration not stated), the TGI is greater than 100 µM.

Compound `Cc1ccc2c(c1)[nH]c(=S)n2/C=C1\C(=O)Oc2ccccc2C1=O` had a TGI greater than 100 µM.

`O=C1C(Cl)C2(CC(/C=C/c3ccccc3Cl)=NN2c2cccc(S(=O)(=O)O)c2)N1c1nc2ccccc2s1` (configuration not stated): the TGI was greater than 100 µM.

`COCCOC(=O)c1c(C)n([O-])c2cc(Cl)c(Cl)cc2[n+]1=O` registered a TGI of 34.7 µM.

The test system of another experiment is HCT-15 colon. Nature of the experiment: inhibition of tumour cell growth, NCI panel, 48 h.
With `CNc1ncnc2c1ncn2C1C=CC(COS(N)(=O)=O)C1` (configuration not stated), the TGI is greater than 100 µM.

Turning to `O=C(NC1=NCC(CN2CCN(c3ccccc3)CC2)O1)Nc1ccccc1` (configuration not stated), the TGI is greater than 100 µM.

On to `Cc1ccc2c(c1)[nH]c(=S)n2/C=C1\C(=O)Oc2ccccc2C1=O`, for which the TGI was greater than 100 µM.

For the compound `O=C1C(Cl)C2(CC(/C=C/c3ccccc3Cl)=NN2c2cccc(S(=O)(=O)O)c2)N1c1nc2ccccc2s1` (configuration not stated), the TGI is greater than 100 µM.

With `COCCOC(=O)c1c(C)n([O-])c2cc(Cl)c(Cl)cc2[n+]1=O`, the TGI came out at 22.3 µM.

Take `COc1ccc(-c2c(C#N)c(N)n(C3OCC(OC(C)=O)C(OC(C)=O)C3OC(C)=O)c(=S)c2C#N)cc1` (configuration not stated): the TGI was greater than 100 µM.

A further experiment concerns COLO 205 colon. Kind of experiment: inhibition of tumour cell growth, NCI panel, 48 h.
For the compound `CNc1ncnc2c1ncn2C1C=CC(COS(N)(=O)=O)C1` (configuration not stated), the TGI is greater than 100 µM.

Compound `O=C(NC1=NCC(CN2CCN(c3ccccc3)CC2)O1)Nc1ccccc1` (configuration not stated) displayed a TGI greater than 100 µM.

`Cc1ccc2c(c1)[nH]c(=S)n2/C=C1\C(=O)Oc2ccccc2C1=O` showed a TGI greater than 100 µM.

`O=C1C(Cl)C2(CC(/C=C/c3ccccc3Cl)=NN2c2cccc(S(=O)(=O)O)c2)N1c1nc2ccccc2s1` (configuration not stated) came in with a TGI greater than 100 µM.

For the compound `COCCOC(=O)c1c(C)n([O-])c2cc(Cl)c(Cl)cc2[n+]1=O`, the TGI stood at 25 µM.

In the case of `COc1ccc(-c2c(C#N)c(N)n(C3OCC(OC(C)=O)C(OC(C)=O)C3OC(C)=O)c(=S)c2C#N)cc1` (configuration not stated), the TGI is greater than 100 µM.

The test system of another experiment is MCF7 breast. Nature of the experiment: inhibition of tumour cell growth, NCI panel, 48 h.
`CNc1ncnc2c1ncn2C1C=CC(COS(N)(=O)=O)C1` (configuration not stated) came in with a TGI greater than 100 µM.

The compound `O=C(NC1=NCC(CN2CCN(c3ccccc3)CC2)O1)Nc1ccccc1` (configuration not stated) registered a TGI greater than 100 µM.

For `Cc1ccc2c(c1)[nH]c(=S)n2/C=C1\C(=O)Oc2ccccc2C1=O`, the TGI is greater than 100 µM.

`O=C1C(Cl)C2(CC(/C=C/c3ccccc3Cl)=NN2c2cccc(S(=O)(=O)O)c2)N1c1nc2ccccc2s1` (configuration not stated) yielded a TGI greater than 100 µM.

On to `COCCOC(=O)c1c(C)n([O-])c2cc(Cl)c(Cl)cc2[n+]1=O`, for which the TGI was greater than 100 µM.

In turn, `COc1ccc(-c2c(C#N)c(N)n(C3OCC(OC(C)=O)C(OC(C)=O)C3OC(C)=O)c(=S)c2C#N)cc1` (configuration not stated) had a TGI greater than 100 µM.

In a further experiment the test system is HOP-62 NSCLC. Kind of experiment: inhibition of tumour cell growth, NCI panel, 48 h.
Consider `CNc1ncnc2c1ncn2C1C=CC(COS(N)(=O)=O)C1` (configuration not stated), for which the TGI was greater than 100 µM.

In the case of `O=C(NC1=NCC(CN2CCN(c3ccccc3)CC2)O1)Nc1ccccc1` (configuration not stated), the TGI is greater than 100 µM.

Turning to `Cc1ccc2c(c1)[nH]c(=S)n2/C=C1\C(=O)Oc2ccccc2C1=O`, the TGI is greater than 100 µM.

As to `COCCOC(=O)c1c(C)n([O-])c2cc(Cl)c(Cl)cc2[n+]1=O`, the TGI came to 35 µM.

Take `COc1ccc(-c2c(C#N)c(N)n(C3OCC(OC(C)=O)C(OC(C)=O)C3OC(C)=O)c(=S)c2C#N)cc1` (configuration not stated): the TGI was greater than 100 µM.

The next experiment deals with HL-60(TB) leukemia. Nature of the experiment: inhibition of tumour cell growth, NCI panel, 48 h.
`CNc1ncnc2c1ncn2C1C=CC(COS(N)(=O)=O)C1` (configuration not stated) yielded a TGI greater than 100 µM.

As for `O=C(NC1=NCC(CN2CCN(c3ccccc3)CC2)O1)Nc1ccccc1` (configuration not stated), the TGI is greater than 100 µM.

`Cc1ccc2c(c1)[nH]c(=S)n2/C=C1\C(=O)Oc2ccccc2C1=O` came in with a TGI greater than 100 µM.

`O=C1C(Cl)C2(CC(/C=C/c3ccccc3Cl)=NN2c2cccc(S(=O)(=O)O)c2)N1c1nc2ccccc2s1` (configuration not stated) had a TGI greater than 100 µM.

Compound `COCCOC(=O)c1c(C)n([O-])c2cc(Cl)c(Cl)cc2[n+]1=O` yielded a TGI of 32 µM.

In the case of `COc1ccc(-c2c(C#N)c(N)n(C3OCC(OC(C)=O)C(OC(C)=O)C3OC(C)=O)c(=S)c2C#N)cc1` (configuration not stated), the TGI was 36.5 µM and 35.9 µM.

Another experiment has as its system NCI-H522 lung. Kind of experiment: inhibition of tumour cell growth, NCI panel, 48 h.
`CNc1ncnc2c1ncn2C1C=CC(COS(N)(=O)=O)C1` (configuration not stated) registered a TGI greater than 100 µM.

`O=C(NC1=NCC(CN2CCN(c3ccccc3)CC2)O1)Nc1ccccc1` (configuration not stated): the TGI is greater than 100 µM.

`Cc1ccc2c(c1)[nH]c(=S)n2/C=C1\C(=O)Oc2ccccc2C1=O` yielded a TGI greater than 100 µM.

On to `O=C1C(Cl)C2(CC(/C=C/c3ccccc3Cl)=NN2c2cccc(S(=O)(=O)O)c2)N1c1nc2ccccc2s1` (configuration not stated), for which the TGI amounted to 26.9 µM.

`COCCOC(=O)c1c(C)n([O-])c2cc(Cl)c(Cl)cc2[n+]1=O`: the TGI was 54.6 µM.

In turn, `COc1ccc(-c2c(C#N)c(N)n(C3OCC(OC(C)=O)C(OC(C)=O)C3OC(C)=O)c(=S)c2C#N)cc1` (configuration not stated) gave a TGI greater than 100 µM.

Another experiment deals with A498 renal. Nature of the experiment: inhibition of tumour cell growth, NCI panel, 48 h.
`CNc1ncnc2c1ncn2C1C=CC(COS(N)(=O)=O)C1` (configuration not stated) registered a TGI greater than 100 µM.

Compound `O=C(NC1=NCC(CN2CCN(c3ccccc3)CC2)O1)Nc1ccccc1` (configuration not stated) had a TGI greater than 100 µM.

Consider `Cc1ccc2c(c1)[nH]c(=S)n2/C=C1\C(=O)Oc2ccccc2C1=O`, for which the TGI is greater than 100 µM.

For the compound `O=C1C(Cl)C2(CC(/C=C/c3ccccc3Cl)=NN2c2cccc(S(=O)(=O)O)c2)N1c1nc2ccccc2s1` (configuration not stated), the TGI was greater than 100 µM.

On to `COCCOC(=O)c1c(C)n([O-])c2cc(Cl)c(Cl)cc2[n+]1=O`, for which the TGI worked out at 61.9 µM.
